The target of assay [1] is T1, human DP1 receptor (Homo sapiens, UniProt Q13258).
T1 construct: tissue Biological Specialty Corporation; host or cells: human platelet membranes
T1 sequence (Q13258 1-359): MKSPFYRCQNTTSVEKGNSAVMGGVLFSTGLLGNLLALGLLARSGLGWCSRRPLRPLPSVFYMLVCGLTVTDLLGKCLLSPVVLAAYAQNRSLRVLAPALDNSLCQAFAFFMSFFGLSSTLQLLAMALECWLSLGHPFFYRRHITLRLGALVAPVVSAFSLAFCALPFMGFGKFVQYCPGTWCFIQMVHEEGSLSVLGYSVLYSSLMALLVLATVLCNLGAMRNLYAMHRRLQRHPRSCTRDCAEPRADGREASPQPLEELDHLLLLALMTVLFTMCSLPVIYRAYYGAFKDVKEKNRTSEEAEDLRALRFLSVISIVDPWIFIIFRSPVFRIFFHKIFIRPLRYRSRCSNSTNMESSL
Put plainly: DP1 radioligand binding assay ([3H]BWA868C, platelet membranes). On the procedure: The ability of a compound to bind to the human DPI receptor was evaluated via a radioligand membrane binding assay using the DP1 selective synthetic ligand [^311]BWA868C. Packed human platelets (Biological Specialty Corporation), were resuspended in 6 volumes of Hepes/HBSS buffer (10 mM Hepes, 1 mM DTT in Hanks Balanced Salt Solution (HBSS)), lysed and centrifuged at 75,000×g to pellet the membranes. Membranes were resuspended in Hepes/HBSS buffer to approximately 12 mg protein/ml. Membranes (20 μg protein/well) are incubated in 96-well plates with 2 nM [^3H]BWA868C and test compound in Assay Buffer (50 mM Hepes, 10 mM MnCl2, 1 mM EDTA, plus or minus 0.2% human serum albumin, pH 7.4) for 60 minutes at room temperature. The reactions are terminated by rapid filtration through Whatman GF/C glass fibre filter plates. The filter plates were pre-soaked in 0.33% polyethylenimine for 30 minutes at room temperature then washed in Wash Buffer (50 mM Hepes, 0.5 M NaCl pH 7.4) prior to harvesting. After harvesting, the filter plates are washed 3 times with 1 ml cold Wash Buffer then dried. Scintillant is then added to the plates and the radioactivity retained on the filters is determined on a Packard TopCount (Perkin Elmer). Specific binding is determined as total radioactive binding minus non-specific binding in the presence of 10 μM BW A868C. IC50s were determined using GraphPad prism analysis of drug titration curves.

For assay [2], the target named is T2, human DP2 receptor (Homo sapiens, UniProt Q9Y5Y4).
T2 construct: expressed in transfected cells
T2 sequence (Q9Y5Y4 1-395): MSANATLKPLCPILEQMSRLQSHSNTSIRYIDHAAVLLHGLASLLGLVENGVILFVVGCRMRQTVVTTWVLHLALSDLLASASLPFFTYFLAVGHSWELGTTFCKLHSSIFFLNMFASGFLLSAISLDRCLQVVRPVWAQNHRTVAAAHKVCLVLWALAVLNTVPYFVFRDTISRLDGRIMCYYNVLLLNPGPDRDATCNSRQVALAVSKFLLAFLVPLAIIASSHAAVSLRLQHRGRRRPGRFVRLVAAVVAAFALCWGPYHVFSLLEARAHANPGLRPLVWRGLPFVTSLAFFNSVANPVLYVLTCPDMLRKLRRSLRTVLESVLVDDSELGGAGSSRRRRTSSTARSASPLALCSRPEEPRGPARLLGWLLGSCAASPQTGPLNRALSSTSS
Put plainly: DP2/CRTH2 radioligand binding assay ([3H]PGD2). To be noted: [3H]PGD2 binding, membranes of HEK293 cells expressing human DP2; read-out: hDP2. The method in brief: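 Membranes from HEK293 cells stably expressing recombinant human DP2 incubated 60 min at room temperature with 1 nM [3H]PGD2 and compound in pH 7.4 Hepes/MnCl2/EDTA buffer, ± 0.2% human serum albumin. Bound radioactivity measured after filtration; non-specific binding defined with 10 μM PGD2. IC50 from titration curves.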

Where [3] appears, read: [3H]BWA868C binding, human platelet membranes, read-out: hDP1.

Where two headings read alike, the source gives them in different places.

In the case of `COc1ccc(CC(=O)O)cc1-c1ccc(C(F)(F)F)cc1CN(C(C)=O)[C@@H]1c2ccccc2C[C@@H]1O` [Compound 1-15, (2′-{[Acetyl-((1R,2S)-2-hydroxy-indan-1-yl)-amino]-methyl}-6-methoxy-4′-trifluoromethyl-biphenyl-3-yl)-acetic acid], the IC50 in assay [1] (setting [3]) and in assay [2] was 1 to 30 µM throughout.

Regarding `CCN(Cc1cc(C(F)(F)F)ccc1-c1cc(CC(=O)O)ccc1OC)C(=O)NCc1ccccn1` [Compound 1-139, [2′-(1-Ethyl-3-pyridin-2-ylmethyl-ureidomethyl)-6-methoxy-4′-trifluoromethyl-biphenyl-3-yl]-acetic acid], the IC50 is 1 to 30 µM in assay [1] (setting [3]) and less than 0.3 µM in assay [2].

Turning to `CCN(Cc1cc(C(F)(F)F)ccc1-c1cc(Cl)cc(CC(=O)O)c1)C(=O)NCc1ccccc1` [Compound 1-157, [2′-(3-Benzyl-1-ethyl-ureidomethyl)-5-chloro-4′-trifluoromethyl-biphenyl-3-yl]-acetic acid], the figures for the IC50 in assay [1] (setting [3]) and in assay [2] were 1 to 30 µM and less than 0.3 µM, respectively.

As for `CCN(C(C)=O)C(C)c1cc(C(F)(F)F)ccc1-c1cc(CC(=O)O)ccc1OC` (centres unmarked) [Compound 1-22, {2′-[1-(Acetyl-ethyl-amino)-ethyl]-6-methoxy-4′-trifluoromethyl-biphenyl-3-yl}-acetic acid], the IC50 in assay [1] (setting [3]) and in assay [2] was 1 to 30 µM throughout.

As for `CCN(Cc1cc(C(F)(F)F)ccc1-c1cc(CC(=O)O)ccc1-c1ccccc1)C(=O)OCc1ccccc1` [Compound 1-144, {2″-[(Benzyloxycarbonyl-ethyl-amino)-methyl]-4″-trifluoromethyl-[1,1′;2′,1″]terphenyl-4′-yl}-acetic acid], the IC50 is 0.3 to 1 µM in assay [1] (setting [3]) and less than 0.3 µM in assay [2].

Turning to `CCN(Cc1cc(C(F)(F)F)ccc1-c1cc(Cl)cc(CC(=O)O)c1)C(=O)OC` [Compound 1-164, {5-Chloro-2′-[(ethyl-methoxycarbonyl-amino)-methyl]-4′-trifluoromethyl-biphenyl-3-yl}-acetic acid], the IC50 in assay [1] (setting [3]) is 1 to 30 µM; in assay [2], less than 0.3 µM.

In the case of `CCN(Cc1cc(C(F)(F)F)ccc1-c1cc(Cl)cc(CC(=O)O)c1)C(=O)C1CC1` [Compound 1-135, {5-Chloro-2′-[(cyclopropanecarbonyl-ethyl-amino)-methyl]-4′-trifluoromethyl-biphenyl-3-yl}-acetic acid], the figures for the IC50 in assay [1] (setting [3]) and in assay [2] were 1 to 30 µM and less than 0.3 µM, respectively.

Turning to `CCN(Cc1cc(C(F)(F)F)ccc1-c1cc(CC(=O)O)ccc1OC)C(=O)Cn1cncn1` [Compound 1-150, (2′-{[Ethyl-(2-[1,2,4]triazol-1-yl-acetyl)-amino]-methyl}-6-methoxy-4′-trifluoromethyl-biphenyl-3-yl)-acetic acid], the values for the IC50 in assay [1] (setting [3]) and in assay [2] were 1 to 30 µM and 0.3 to 1 µM, respectively.

For `CCN(Cc1cc(NS(=O)(=O)c2ccc(Cl)cc2)ccc1-c1cc(CC(=O)O)ccc1OC)C(=O)OCc1ccccc1` [Compound 1-156, [2′-[(Benzyloxycarbonyl-ethyl-amino)-methyl]-4′-(4-chloro-benzenesulfonylamino)-6-methoxy-biphenyl-3-yl]-acetic acid], the IC50 was 1 to 30 µM in assay [1] (setting [3]) and less than 0.3 µM in assay [2].

In the case of `CCN(Cc1ccc(C)cc1-c1cc(CC(=O)O)ccc1OC)C(=O)OCc1ccc(F)cc1` [Compound 1-169, (2′-{[Ethyl-(4-fluoro-benzyloxycarbonyl)-amino]-methyl}-6-methoxy-5′-methyl-biphenyl-3-yl)-acetic acid], the IC50 in assay [1] (setting [3]) is 1 to 30 µM; in assay [2] it was less than 0.3 µM.

With `CCN(Cc1ccc(C(F)(F)F)cc1-c1cc(CC(=O)O)ccc1OC)C(=O)OCc1ccc(Cl)cc1` [Compound 1-174, (2′-{[(4-Chloro-benzyloxycarbonyl)-ethyl-amino]-methyl}-6-methoxy-5′-trifluoromethyl-biphenyl-3-yl)-acetic acid], the IC50 was 0.3 to 1 µM in assay [1] (setting [3]) and less than 0.3 µM in assay [2].

Consider `CCN(Cc1cc(C(F)(F)F)ccc1-c1cc(CC(=O)O)ccc1OC)/C(=N/C#N)NCc1ccccn1` [Compound 1-147, [2′-(N′-Cyano-N-ethyl-N″-pyridin-2-ylmethyl-guanidinomethyl)-6-methoxy-4′-trifluoromethyl-biphenyl-3-yl]-acetic acid], for which the IC50 is 1 to 30 µM in assay [1] (setting [3]) and less than 0.3 µM in assay [2].

For `CCN(Cc1cc(C(F)(F)F)ccc1-c1cc(CC(=O)O)ccc1OC)C(=O)NC1CC1` [Compound 1-182], the IC50 in assay [1] (setting [3]) is 1 to 30 µM; in assay [2], less than 0.3 µM.

Regarding `CCN(Cc1cc(C(F)(F)F)ccc1-c1cc(CC(=O)O)cc(C(F)(F)F)c1)C(C)=O` [Compound 1-138, {2′-[(Acetyl-ethyl-amino)-methyl]-5,4′-bis-trifluoromethyl-biphenyl-3-yl}-acetic acid], the values for the IC50 in assay [1] (setting [3]) and in assay [2] were 1 to 30 µM and less than 0.3 µM, respectively.

For `CCN(Cc1cc(F)ccc1-c1cc(CC(=O)O)ccc1OC)C(=O)NCc1ccc(Cl)cc1` [Compound 1-185, {2′-[3-(4-Chloro-benzyl)-1-ethyl-ureidomethyl]-4′-fluoro-6-methoxy-biphenyl-3-yl}-acetic acid], the IC50 in assay [1] (setting [3]) was 1 to 30 µM.

In the case of `O=C(O)CCn1c2c(c3ccccc31)C[C@H](NS(=O)(=O)c1ccc(F)cc1)CC2` [Ramatroban, reference compound], the IC50 in assay [1] (setting [3]) lay in the range of 1 to 30 µM.

As to `CCN(Cc1cc(C(F)(F)F)ccc1-c1cc(CC(=O)O)ccc1OC)C(=O)N[C@H](C)c1ccc(Cl)cc1` [Compound 1-179, (2′-{3-[(R)-1-(4-Chloro-phenyl)-ethyl]-1-ethyl-ureidomethyl}-6-methoxy-4′-trifluoromethyl-biphenyl-3-yl)-acetic acid], the IC50 in assay [1] (setting [3]) lay within 1 to 30 µM.

With `COc1ccc(CC(=O)O)cc1-c1ccc(C(F)(F)F)cc1CN(C)C(=O)OCc1ccccc1` [Compound 1-27, {2′-[(Benzyloxycarbonyl-methyl-amino)-methyl]-6-methoxy-4′-trifluoromethyl-biphenyl-3-yl}-acetic acid], in assay [1] (setting [3]), the IC50 lay within 1 to 30 µM.

For the compound `CCN(Cc1cc(C(F)(F)F)ccc1-c1cc(CC(=O)O)ccc1OC)C(=O)NCc1ccc(F)cc1` [Compound 1-176, {2′-[1-Ethyl-3-(4-fluoro-benzyl)-ureidomethyl]-6-methoxy-4′-trifluoromethyl-biphenyl-3-yl}-acetic acid], the IC50 in assay [1] (setting [3]) fell in the range of 1 to 30 µM.

With `CCN(Cc1cc(C(F)(F)F)ccc1-c1cc(CC(=O)O)ccc1OC)C(=O)COc1ccc(Cl)cc1` [Compound 1-93, [2′-({[2-(4-Chloro-phenoxy)-acetyl]-ethyl-amino}-methyl)-6-methoxy-4′-trifluoromethyl-biphenyl-3-yl]-acetic acid], the IC50 in assay [1] (setting [3]) fell in the range of 1 to 30 µM.

`CN(Cc1cc(C(F)(F)F)ccc1-c1cc(CC(=O)O)ccc1F)C(=O)OCc1ccccc1` [Compound 1-29, {2′-[(Benzyloxycarbonyl-methyl-amino)-methyl]-6-fluoro-4′-trifluoromethyl-biphenyl-3-yl}-acetic acid]: the IC50 in assay [1] (setting [3]) lay in the range of 1 to 30 µM.

As to `COc1ccc(CC(=O)O)cc1-c1ccc(C(F)(F)F)cc1CN(C)C(C)=O` [Compound 1-1, {2′-[(Acetyl-methyl-amino)-methyl]-6-methoxy-4′-trifluoromethyl-biphenyl-3-yl}-acetic acid], the IC50 in assay [1] (setting [3]) lay within 1 to 30 µM.

For `CCN(Cc1cc(F)ccc1-c1cc(CC(=O)O)ccc1OC)C(C)=O` [Compound 1-184, {2′-[(Acetyl-ethyl-amino)-methyl]-4′-fluoro-6-methoxy-biphenyl-3-yl}-acetic acid], the IC50 in assay [1] (setting [3]) was 1 to 30 µM.

In turn, `COc1ccc(CC(=O)O)cc1-c1ccc(C(F)(F)F)cc1CN(C(=O)OCc1ccccc1)C1CC1` [Compound 1-36, {2′-[(Benzyloxycarbonyl-cyclopropyl-amino)-methyl]-6-methoxy-4′-trifluoromethyl-biphenyl-3-yl}-acetic acid] gave an IC50 in assay [1] of 1 to 30 µM.

For the origin of these results see patent US8067445B2, “N,N-disubstituted aminoalkylbiphenyl antagonists of prostaglandin D2 receptors” (Panmira Pharmaceuticals, LLC, priority 2008, dated 2011).
